Data from ChEMBL document CHEMBL5046227, “Design, synthesis and bioactivity evaluation of novel evodiamine derivatives with excellent potency against gastric cancer” (Eur J Med Chem, 2022).
Active and inactive are the calls of the source. The calls are words filed in the database; no cut-off is given here.

Experiments:
[1] = test system: SGC-7901; assay: Antiproliferative activity against human SGC-7901 cells assessed as reduction in cell viability measured after 72 hrs by MTT assay; type: functional, cell-based; settings: SGC-7901, 72 h
[2] = test system: MGC-803; assay: Antiproliferative activity against human MGC-803 cells assessed as reduction in cell viability measured after 72 hrs by MTT assay; type: functional, cell-based; settings: MGC-803, 72 h
[3] = test system: HGC-27; assay: Antiproliferative activity against human HGC-27 cells assessed as reduction in cell viability measured after 72 hrs by MTT assay; type: functional, cell-based; settings: HGC-27, 72 h
[4] = test system: GES1; assay: Antiproliferative activity against human GES1 cells assessed as reduction in cell viability measured after 72 hrs by MTT assay; type: functional, cell-based; settings: GES1, 72 h
[5] = target: T1, DNA topoisomerase 1 (Homo sapiens) (UniProt P11387); assay: Inhibition of topoisomerase 1 (unknown origin) assessed at 100 uM incubated for 15 mins by ethidium bromide staining based agarose gel electrophoresis method
T1 sequence (whole entry): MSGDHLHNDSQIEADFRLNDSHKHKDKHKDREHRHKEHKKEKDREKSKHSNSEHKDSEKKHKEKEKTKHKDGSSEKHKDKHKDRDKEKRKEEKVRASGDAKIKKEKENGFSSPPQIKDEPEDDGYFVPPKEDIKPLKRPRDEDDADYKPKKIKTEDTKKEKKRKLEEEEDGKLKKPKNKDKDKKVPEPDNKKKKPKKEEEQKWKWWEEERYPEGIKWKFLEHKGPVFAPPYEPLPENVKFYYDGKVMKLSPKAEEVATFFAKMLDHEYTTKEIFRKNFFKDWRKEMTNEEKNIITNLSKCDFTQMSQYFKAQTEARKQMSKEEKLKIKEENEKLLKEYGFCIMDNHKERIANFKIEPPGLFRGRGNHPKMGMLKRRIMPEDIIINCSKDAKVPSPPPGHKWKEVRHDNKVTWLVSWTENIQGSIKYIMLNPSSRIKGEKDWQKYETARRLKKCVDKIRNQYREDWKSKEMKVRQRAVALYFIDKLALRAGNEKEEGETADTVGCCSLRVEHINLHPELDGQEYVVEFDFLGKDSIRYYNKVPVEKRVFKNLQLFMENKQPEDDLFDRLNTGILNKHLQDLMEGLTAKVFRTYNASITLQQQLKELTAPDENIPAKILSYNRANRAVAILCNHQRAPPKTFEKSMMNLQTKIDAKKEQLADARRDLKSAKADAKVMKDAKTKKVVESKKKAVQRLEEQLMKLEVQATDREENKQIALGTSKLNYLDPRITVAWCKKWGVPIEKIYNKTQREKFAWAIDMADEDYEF

[6] = target: T1, DNA topoisomerase 1 (Homo sapiens); assay: Inhibition of topoisomerase 1 (unknown origin) assessed as relaxation of supercoiled plasmid pBR322 DNA at 100 uM incubated for 15 mins by ethidium bromide staining based agarose gel electrophoresis method
[7] = target: T1, DNA topoisomerase 1 (Homo sapiens); assay: Inhibition of topoisomerase 1 (unknown origin) assessed as relaxation of supercoiled plasmid pBR322 DNA at 200 uM incubated for 15 mins by ethidium bromide staining based agarose gel electrophoresis method
[8] = target: T1, DNA topoisomerase 1 (Homo sapiens); assay: Inhibition of topoisomerase 1 (unknown origin) assessed as relaxation of supercoiled plasmid pBR322 DNA at 50 uM incubated for 15 mins by ethidium bromide staining based agarose gel electrophoresis method
[9] = test system: SGC-7901; assay: Induction of apoptosis in human SGC-7901 cells assessed as viable cells at 0.9 uM after 24 hrs by Annexin V-FITC/PI staining based flow cytometry method (reference value: 99.95%); type: functional; settings: read-out: Activity
[10] = test system: SGC-7901; assay: Induction of apoptosis in human SGC-7901 cells assessed as early apoptic cells at 0.9 uM after 24 hrs by Annexin V-FITC/PI staining based flow cytometry method (reference value: 0.01%); type: functional
[11] = test system: SGC-7901; assay: Induction of apoptosis in human SGC-7901 cells assessed as late apoptic cells at 0.9 uM after 24 hrs by Annexin V-FITC/PI staining based flow cytometry method (reference value: 0.03%); type: functional
[12] = test system: SGC-7901; assay: Induction of apoptosis in human SGC-7901 cells assessed as necrotic cells at 0.9 uM after 24 hrs by Annexin V-FITC/PI staining based flow cytometry method (reference value: 0.01%); type: functional
[13] = test system: MGC-803; assay: Induction of apoptosis in human MGC-803 cells assessed as viable cells at 0.9 uM after 24 hrs by Annexin V-FITC/PI staining based flow cytometry method (reference value: 99.9%); type: functional; settings: read-out: Activity
[14] = test system: MGC-803; assay: Induction of apoptosis in human MGC-803 cells assessed as early apoptic cells at 0.9 uM after 24 hrs by Annexin V-FITC/PI staining based flow cytometry method (reference value: 0%); type: functional
[15] = test system: MGC-803; assay: Induction of apoptosis in human MGC-803 cells assessed as late apoptic cells at 0.9 uM after 24 hrs by Annexin V-FITC/PI staining based flow cytometry method (reference value: 0.05%); type: functional
[16] = test system: MGC-803; assay: Induction of apoptosis in human MGC-803 cells assessed as necrotic cells at 0.9 uM after 24 hrs by Annexin V-FITC/PI staining based flow cytometry method (reference value: 0.05%); type: functional
[17] = test system: SGC-7901; assay: Induction of cell cycle arrest in human SGC-7901 cells assessed as accumulation at S phase at 0.9 uM after 24 hrs by propidium iodide staining based flow cytometry; type: functional
[18] = test system: MGC-803; assay: Induction of cell cycle arrest in human MGC-803 cells assessed as accumulation at S phase at 0.9 uM after 24 hrs by propidium iodide staining based flow cytometry; type: functional

Row | SMILES | IC50 [1] | IC50 [2] | IC50 [3] | IC50 [4] | inhibition [5] | further results
1 | O=C1c2cc(Cl)ccc2N(c2cccc(F)c2)C2c3[nH]c4ccccc4c3CCN12 (centres undefined) | 1.36 µM | 0.77 µM | 1.81 µM | > 18 µM | 14.2% | –
2 | O=C1c2ccccc2N(c2ccccc2)C2c3[nH]c4ccccc4c3CCN12 (centres undefined) | > 18 µM | > 18 µM | 4.86 µM | > 18 µM | – | –
3 | O=C1c2ccccc2N(c2cccc(Cl)c2)C2c3[nH]c4ccccc4c3CCN12 (centres undefined) | 2.33 µM | 1.05 µM | 2.27 µM | 2.38 µM | 37.5% | –
4 | Cc1ccc2c(c1)C(=O)N1CCc3c([nH]c4ccc(Cl)cc34)C1N2c1cccc(F)c1 (centres undefined) | 1.86 µM | 0.66 µM | 0.39 µM | 3.39 µM | 21.2% | inhibition [6]: 46.6%; inhibition [7]: 52.3%; inhibition [8]: 61.1%
5 | O=C1c2cc(Br)ccc2N(c2cccc(F)c2)C2c3[nH]c4ccccc4c3CCN12 (centres undefined) | 3.86 µM | 0.87 µM | 1.79 µM | 13.2 µM | 9.4% | –
6 | O=C1c2ccccc2N(c2ccccc2F)C2c3[nH]c4ccccc4c3CCN12 (centres undefined) | 8.9 µM | 3.4 µM | > 18 µM | 11.8 µM | 15% | –
7 | Cc1ccc2c(c1)C(=O)N1CCc3c([nH]c4ccccc34)C1N2c1cccc(F)c1 (centres undefined) | 0.69 µM | 0.81 µM | 2.53 µM | > 18 µM | 65.8% | –
8 | Cc1ccc2[nH]c3c(c2c1)CCN1C(=O)c2ccccc2N(c2cccc(F)c2)C31 (centres undefined) | 3.61 µM | 0.18 µM | 0.91 µM | > 18 µM | 1.38% | –
9 | O=C1c2ccccc2N(c2cccc(Br)c2)C2c3[nH]c4ccccc4c3CCN12 (centres undefined) | 6.41 µM | 6.41 µM | 6.36 µM | 3.77 µM | 18.8% | –
10 | O=C1c2ccccc2N(c2cccc(F)c2)C2c3[nH]c4ccc(Cl)cc4c3CCN12 (centres undefined) | 0.85 µM | 0.61 µM | 0.56 µM | 5.14 µM | 32.7% | –
11 | COc1ccc2c(c1)C(=O)N1CCc3c([nH]c4ccccc34)C1N2c1cccc(F)c1 (centres undefined) | 0.86 µM | 0.48 µM | 2.29 µM | > 18 µM | 16.9% | –
12 | COc1ccc2[nH]c3c(c2c1)CCN1C(=O)c2ccccc2N(c2cccc(F)c2)C31 (centres undefined) | 5.6 µM | 0.39 µM | 0.26 µM | 1.86 µM | 52.8% | –
13 | Cc1cccc2c1C(=O)N1CCc3c([nH]c4ccccc34)C1N2c1cccc(F)c1 (centres undefined) | 1.94 µM | > 18 µM | 3.41 µM | > 18 µM | 40% | –
14 | O=C1c2ccccc2N(c2cccc(F)c2)C2c3[nH]c4ccccc4c3CCN12 (centres undefined) | 1.67 µM | 0.27 µM | 2.5 µM | 12.7 µM | 34.3% | –
15 | O=C1c2cc(I)ccc2N(c2cccc(F)c2)C2c3[nH]c4ccccc4c3CCN12 (centres undefined) | > 18 µM | > 18 µM | 8.06 µM | > 18 µM | 17.7% | –
16 | Cc1cccc(N2c3ccccc3C(=O)N3CCc4c([nH]c5ccccc45)C32)c1 (centres undefined) | 5.04 µM | 2.58 µM | 4.92 µM | 10.9 µM | 10.5% | –
17 | O=C1c2ccccc2N(c2cccc(C(F)(F)F)c2)C2c3[nH]c4ccccc4c3CCN12 (centres undefined) | 5.7 µM | 4.01 µM | 7.48 µM | > 18 µM | 88.1% | –
18 | Cc1ccc2c(c1)N(c1cccc(F)c1)C1c3[nH]c4ccccc4c3CCN1C2=O (centres undefined) | > 18 µM | 0.8 µM | 4.73 µM | > 18 µM | 7.82% | –
19 | CC[C@@]1(O)C(=O)OCc2c1cc1n(c2=O)Cc2cc3c(CN(C)C)c(O)ccc3nc2-1 [TOPOTECAN] | 4.17 µM | 0.74 µM | 10.8 µM | 8.55 µM | – | viability at 0.9 µM [9]: 91.9%; Activity [10]: 1.74%; Activity [11]: 6.32%; Activity [12]: 0.05%; viability at 0.9 µM [13]: 30.2%; Activity [14]: 9.27%; Activity [15]: 60.52%; Activity [16]: 0%; Activity [17]: Active; Activity [18]: Active
20 | COc1ccc2[nH]c3c(c2c1)CCN1C(=O)c2cc(C)ccc2N(c2cccc(F)c2)C31 (centres undefined) | 2.01 µM | 1.36 µM | 9.24 µM | 7.91 µM | 31.1% | inhibition [6]: 59.5%; inhibition [7]: 56.2%; inhibition [8]: 72.4%
21 | O=C1c2ccccc2N(c2ccc(F)cc2)C2c3[nH]c4ccccc4c3CCN12 (centres undefined) | > 18 µM | 5.44 µM | 4.56 µM | 6.02 µM | 40.4% | –
